These results are taken from paper PMC9368981, “The γ-Core Motif Peptides of AMPs from Grasses Display Inhibitory Activity against Human and Plant Pathogens” (International Journal of Molecular Sciences, 2022).

The test system of experiment [1] is Cryptococcus neoformans VKM Y-2755. The format is cell-based. The procedure: (§1) The antimicrobial activity of synthetic peptides was tested against a panel of human and plant pathogens. Among them were the yeasts Candida albicans VKM Y-2994 and Cryptococcus neoformans VKM Y-2755, the plant pathogenic bacteria Clavibacter michiganensis subsp. michiganensis VKM Ac-1403, Pseudomonas savastanoi pv. savastanoi VKM B-1546 and Pectobacterium carotovorum subsp. carotovorum VKM B-1247, and four Fusarium species (F. oxysporum VKM F-137, F. culmorum VKM F-2303, F. solani VKM F-142 and F. verticillioides VKM F-670), which cause diseases in plants and humans. The antimicrobial activity was first measured at the peptide concentration of 300 µM (Figure 3).
(§2) The antimicrobial activity of synthetic peptides was tested against the yeasts Candida albicans VKM Y-2994 and Cryptococcus neoformans VKM Y-2755, the bacteria Pseudomonas savastanoi pv. savastanoi VKM B-1546, Pectobacterium carotovorum subsp. carotovorum VKM B-1247 and Clavibacter michiganensis subsp. michiganensis VKM Ac-1403, and four Fusarium species: F. culmorum VKM F-2303, F. oxysporum VKM F-137, F. solani VKM F-142 and F. verticillioides VKM F-670. All cultures were obtained from the All-Russian Collection of Microorganisms (VKM). The details of the production and storage of cultures of microorganisms used in this study are described at the VKM Home page. Antimicrobial assays were accomplished according to the procedure described earlier. In short, yeasts were grown on the YPD-P medium and the bacteria P. carotovorum and Cl. michiganensis were cultured on a modified YPD-P medium. The Fusarium fungi were grown on potato dextrose agar at 25 °C for 7–8 days, and spores were washed off from the surface of the mycelia with sterile, distilled water. The antimicrobial activity of the peptides was measured in immunoassay microtiter plates according to the protocol of Broekaert et al.. With yeasts and bacteria, each well contained 10 µL of the tested peptide solution (final concentrations of 10–300 µM) in water, 80 µL of the medium and 10 µL of the microbial suspension. The plates were incubated at 30 °C for 24 h, and the absorbance of the suspension was measured on an Efos 9305 spectrophotometer (Sapphire, Moscow, Russia) at 594 nm. For Fusarium species, the wells of a microtiter plate were filled with 90 µL of the fungal spore suspension in half-strength potato dextrose broth at a concentration of 2000–3000 spores in 100 µL and 10 µL of aqueous solutions of peptides at final concentrations of 10–300 µM. After 38 h of incubation, the absorbance was recorded at 595 nm on a FilterMax F5 Multi-Mode Microplate Reader (Molecular Devices, San Jose, CA, USA). Antimicrobial activity is expressed in IC50 values, which show the concentration necessary for 50% inhibition of the pathogen growth; this was determined from a graph showing the activity dependence on peptide concentration.
(§3) For each pathogen, experiments on the peptide antimicrobial activity evaluation were carried out in triplicate per treatment. Mean values, standard deviations (SD), and the significance of differences (p ≤ 0.05) of the means between treatments and controls (t-test for independent variables) were determined using STATISTICA v. 6.1 software (StatSoft Inc., Tulsa, OK, USA).

Experiment [2] concerns Candida albicans VKM Y-2994. The format is cell-based. The following applies: for Inhibition of C. albicans at the highest tested concentration: inhibition curves (Figure 4), highest tested concentration (300 µM). The protocol:
as §1, §2, §3

Experiment [3] relates to Cr. neoformans cells. Briefly: Propidium iodide staining, fluorescence microscopy. It counts as cell-based, Cryptococcus neoformans. The following applies: peptide 300 µM, 30 °C, 1 h, 0.03 mM PI 15 min. The protocol: (§4) Their ability to disturb the integrity of pathogen membranes was assayed by staining with propidium iodide of C. albicans and Cr. neoformans cells preliminarily incubated with the peptides. The results were visualized by fluorescent microscopy and quantified by flow cytometry (Figure 5, Figure 6 and Figure 7).
(§5) Staining of yeast cells with propidium iodide in the presence of the γ-core peptides was carried out according to the protocol described earlier. C. albicans or Cr. neoformans cells (24 h culture in YPD-P at a cell concentration of 2 × 10^8/mL) were incubated with the peptide at a concentration of 300 µM at 30 °C for 1 h. After incubation, 1 mL of the cells was stained with 0.03 mM propidium iodide (Sigma, St. Louis, MO, USA). The staining proceeded for 15 min at 30 °C. The fluorescence was recorded on an AXIO Imager A1 fluorescence microscope (ZEISS, Göttingen, Germany) using a Zeiss filter set 56 HE.

The next experiment concerns C. albicans cells. Description: Propidium iodide staining, fluorescence microscopy. The following applies: peptide 300 µM, 30 °C, 1 h, 0.03 mM PI 15 min. It counts as cell-based, Candida albicans. The procedure:
as §4, §5

The subject of experiment [4] is F. verticillioides VKM F-670. It counts as cell-based, Fusarium verticillioides. The protocol: as §1, §2, §3
The test system of experiment [5] is Pectobacterium carotovorum subsp. carotovorum VKM B-1247. The following applies: 30 °C, 24 h, absorbance 594 nm. The protocol:
All cultures were obtained from the All-Russian Collection of Microorganisms (VKM).
Mean values, standard deviations (SD), and the significance of differences (p ≤ 0.05) of the means between treatments and controls (t-test for independent variables) were determined using […] v. 6.1 software (StatSoft Inc., Tulsa, OK, USA).

Experiment [6] relates to Cr. neoformans cells. Description: Propidium iodide penetration, flow cytometry. The format is cell-based, Cryptococcus neoformans. The following applies: 28 °C, 2 h; for Penetration of propidium iodide (PI) into Cr. neoformans cells: peptide 300 µM in water, PI 2 µg/mL, FL2 (488/585 nm); for Number of Cr. neoformans cells in flow cytometry: peptide 300 µM. The protocol:
as §4
For flow cytometry experiments with Cr. neoformans, the yeasts were grown on the YPD medium at 28 °C for 48 h. After that, the cells were centrifuged at 12,000× g for 3 min, washed with MiliQ water and incubated with the peptides dissolved in water at a concentration of 300 µM at 28 °C for 2 h. The cells were stained with propidium iodide by direct addition of the dye to the incubation medium (final concentration of 2 µg/mL) and measured on a NovoCyte Flow cytometer (Agilent, Santa Clara, CA, USA) using the channel FL2 (488 nm excitation and 585 nm emission). The sample without peptides was used as a control.
(In general: In flow cytometry, cells or beads pass a laser one at a time.)

Experiment [7] concerns Pseudomonas savastanoi pv. savastanoi VKM B-1546. The format is cell-based. The following applies: 300 µM peptide; 30 °C, 24 h, absorbance 594 nm; vs control without peptide; triplicate, mean. The protocol:
as §1, §2, §3

Where [8] appears, read: inhibition curves (Figure 4), highest tested concentration (300 µM).

Where a SMILES comes first, the peptide text is derived from it. Where no end group is shown, it is not given here.

Regarding PARGRPYTGRA [DEFL4-37_91-101], the “Activity against Cr. neoformans relative to DEFL4-37_90-102” value in experiment [1] (300 µM (Figure 3), times less active) is on record as 10 times.
Take `C[C@@H](O)[C@H](NC(=O)[C@H](CS)NC(=O)[C@H](CCCNC(=N)N)NC(=O)[C@H](CCCNC(=N)N)NC(=O)[C@H](Cc1ccccc1)NC(=O)[C@H](CCCCN)NC(=O)[C@H](CS)NC(=O)[C@H](Cc1ccc(O)cc1)NC(=O)CN)C(=O)N[C@@H](CS)C(=O)N[C@@H](CCC(N)=O)C(=O)N[C@@H](CCCNC(=N)N)C(=O)N[C@@H](CCC(=O)O)C(=O)N[C@@H](CS)C(=O)O` [DEFL1-32_55-68] (H-GYCKFRRCTCQREC-OH; N-terminus and C-terminus assumed): the “Inhibition of C. albicans at the highest tested concentration” value in experiment [2] was found to be 92%. Moreover, the “Membrane permeabilization of Cr. neoformans cells (PI staining)” value in the experiment on Cr. neoformans cells [3] was “induced membrane permeabilization”. Moreover, the “Membrane permeabilization of C. albicans cells (PI staining)” value in the experiment with C. albicans cells is recorded as “induced membrane permeabilization”.
For `C[C@H](NC(=O)[C@@H](N)CS)C(=O)NCC(=O)N[C@@H](CCCNC(=N)N)C(=O)NCC(=O)N[C@@H](CCC(N)=O)C(=O)N1CCC[C@H]1C(=O)N[C@@H](Cc1ccc(O)cc1)C(=O)N[C@H](C(=O)NCC(=O)N[C@@H](CO)C(=O)NCC(=O)N[C@@H](CS)C(=O)O)[C@@H](C)O` [DEFL4-8_82-94] (H-CAGRGQPYTGSGC-OH; N-terminus and C-terminus assumed), the “Maximum inhibition of F. verticillioides at the highest tested concentration” value in experiment [4] (setting [8]) was found to be 26%. Moreover, the IC50 (commonly the midpoint of a concentration-inhibition curve) is more than 100 µM in experiment [4] (peptide 10–300 µM, 38 h, absorbance 595 nm, from activity vs concentration graph, mean ± SD) and more than 100 µM in experiment [5] (read-out: IC50, μM P. carotovorum, peptide 10–300 µM, from activity vs concentration graph, mean ± SD). Besides, the “Pathogen inhibition, % (P. carotovorum)” value in experiment [5] (300 µM peptide, modified YPD-P medium, vs control without peptide, triplicate, mean) amounted to 42%.
With `CSCC[C@H](NC(=O)[C@H](CS)NC(=O)[C@H](C)NC(=O)CNC(=O)[C@H](CCCNC(=N)N)NC(=O)[C@H](CCCCN)NC(=O)[C@H](C)NC(=O)[C@H](CCCNC(=N)N)NC(=O)[C@H](CO)NC(=O)[C@H](CCCNC(=N)N)NC(=O)[C@H](C)NC(=O)[C@H](CS)NC(=O)[C@H](CCCNC(=N)N)NC(=O)[C@@H](NC(=O)[C@H](C)NC(=O)[C@H](CS)NC(=O)[C@H](CCCCN)NC(=O)CN)C(C)C)C(=O)N[C@@H](CCCCN)C(=O)O` [TkSN1_39-57] (H-GKCAVRCARSRAKRGACMK-OH; N-terminus and C-terminus assumed), the “Inhibition of C. albicans at the highest tested concentration” value in experiment [2] is “complete inhibition”. Besides, the “Membrane permeabilization of Cr. neoformans cells (PI staining)” value in the experiment with Cr. neoformans cells [3] was “induced membrane permeabilization”. For the same compound, in the experiment on C. albicans cells, the “Membrane permeabilization of C. albicans cells (PI staining)” value is recorded as “induced membrane permeabilization”.
Take `CC(C)C[C@H](NC(=O)[C@H](CCCNC(=N)N)NC(=O)[C@H](Cc1c[nH]cn1)NC(=O)[C@H](CO)NC(=O)[C@H](CC(N)=O)NC(=O)[C@H](CS)NC(=O)[C@H](CCC(=O)O)NC(=O)CN)C(=O)N[C@@H](CCC(=O)O)C(=O)N[C@@H](CCCNC(=N)N)C(=O)N[C@@H](CCCCN)C(=O)N[C@@H](CS)C(=O)N[C@@H](Cc1ccccc1)C(=O)N[C@@H](CS)C(=O)N[C@@H](CCCCN)C(=O)N[C@@H](CCCNC(=N)N)C(=O)N[C@H](C(=O)N[C@@H](CS)C(=O)O)[C@@H](C)O` [DEFL1-40_65-82] (H-GECNSHRLERKCFCKRTC-OH): in experiment [2] (300 µM peptide, YPD-P medium, 30 °C, 24 h, absorbance 594 nm, vs control without peptide, triplicate, mean), the “Pathogen inhibition, % (C. albicans)” value is on record as “failed to suppress”.
In the case of `CC(C)[C@H](NC(=O)[C@H](CS)NC(=O)[C@H](CCCNC(=N)N)NC(=O)CNC(=O)CNC(=O)[C@H](CS)NC(=O)[C@H](CS)NC(=O)[C@@H]1CCCN1C(=O)[C@H](Cc1ccccc1)NC(=O)[C@@H](NC(=O)[C@@H](NC(=O)[C@H](CCCNC(=N)N)NC(=O)[C@H](CS)NC(=O)[C@@H](N)CCCCN)[C@@H](C)O)[C@@H](C)O)C(=O)O` [Tk-AMP-K2_10-23] (H-KCRTTFPCCGGRCV-OH; N-terminus and C-terminus assumed), in the experiment on Cr. neoformans cells [6], the “Penetration of propidium iodide (PI) into Cr. neoformans cells” value was determined as 66.86% and the “Number of Cr. neoformans cells in flow cytometry” value is given as “reduction in the number of Cr. neoformans cells”. In addition, the “Inhibition of Cr. neoformans at the highest tested concentration” value in experiment [1] (setting [8]) is given as “complete inhibition”. In addition, the “Membrane permeabilization of Cr. neoformans cells (PI staining)” value with Cr. neoformans cells [3] is recorded as “induced membrane permeabilization”. Moreover, the “Membrane permeabilization of C. albicans cells (PI staining)” value in the experiment with C. albicans cells was “induced membrane permeabilization”.
As for `C[C@@H](O)[C@H](NC(=O)[C@H](CS)NC(=O)[C@H](Cc1ccccc1)NC(=O)[C@H](CS)NC(=O)[C@H](CCCNC(=N)N)NC(=O)[C@H](CCCNC(=N)N)NC(=O)[C@H](CCCNC(=N)N)NC(=O)[C@H](Cc1ccccc1)NC(=O)CNC(=O)[C@H](CCCNC(=N)N)NC(=O)[C@H](CS)NC(=O)[C@H](CCCCN)NC(=O)CN)C(=O)N[C@H](C(=O)N[C@@H](Cc1c[nH]cn1)C(=O)N[C@@H](CS)C(=O)N[C@@H](Cc1c[nH]cn1)C(=O)N[C@@H](Cc1c[nH]cn1)C(=O)O)[C@@H](C)O` [DEFL1-16_65-82] (H-GKCRGFRRRCFCTTHCHH-OH; N-terminus and C-terminus assumed), the “Membrane permeabilization of Cr. neoformans cells (PI staining)” value in the experiment with Cr. neoformans cells [3] is given as “induced membrane permeabilization”. The “Membrane permeabilization of C. albicans cells (PI staining)” value with C. albicans cells is “induced membrane permeabilization”.
Turning to AGHGKRYTGRG [HvDEFL4-1_67-77], in the experiment on Cr. neoformans cells [6], the “Penetration of propidium iodide (PI) into Cr. neoformans cells” value is given as 37.84% and the “Number of Cr. neoformans cells in flow cytometry” value is listed as “reduction in the number of Cr. neoformans cells”. Further, the “Membrane permeabilization of Cr. neoformans cells (PI staining)” value in the experiment on Cr. neoformans cells [3] was “induced membrane permeabilization”. Besides, the “Membrane permeabilization of C. albicans cells (PI staining)” value in the experiment on C. albicans cells is recorded as “induced membrane permeabilization”.
With `CC[C@H](C)[C@H](NC(=O)[C@H](CCCCN)NC(=O)[C@H](CS)NC(=O)[C@H](Cc1ccc(O)cc1)NC(=O)CN)C(=O)N[C@@H](CO)C(=O)N[C@@H](CCCNC(=N)N)C(=O)N[C@@H](CS)C(=O)N[C@H](C(=O)N[C@@H](CS)C(=O)N[C@@H](CCC(N)=O)C(=O)N[C@@H](CCCNC(=N)N)C(=O)N[C@@H](CCC(=O)O)C(=O)N[C@@H](CS)C(=O)O)[C@@H](C)O` [DEFL1-11_55-68] (H-GYCKISRCTCQREC-OH; N-terminus and C-terminus assumed), the “Pathogen inhibition, % (Ps. savastanoi)” value in experiment [7] was “failed to suppress”.
